The values that follow come from US20260124170A1, “PHARMACEUTICAL COMPOSITION COMPRISING METABOLITE OF ENAVOGLIFLOZIN, AND USE THEREOF” (DAEWOONG PHARMACEUTICAL CO., LTD., priority 2022, published 2026).

Molecules are shown by their SMILES. “Also recorded” adds a separate entry of the source. Where two headings read alike, the source gives them in different places.

In data set [1] the test system is normal rats. Description: Oral glucose tolerance test (OGTT) after intravenous administration. To be noted: 1 mg/kg intravenous; for Glucose tolerance inhibition rate improved compared to the vehicle (blood glucose AUC): AUC for 120 minutes; for Glucose tolerance in OGTT: glucose 2 g/kg. The format is in vivo, rat. The protocol:
(§1) Enavogliflozin, M1, or M2 was intravenously administered once to normal rats, and antidiabetic efficacy was evaluated.
(§2) To perform the oral glucose tolerance test (OGTT) and examine urinary glucose excretion (UGE), enavogliflozin, M1, or M2 was administered intravenously to male 8-week-old normal rats at a dose of 1 mg/kg, and then a glucose solution (2 g/kg) was administered to load blood sugar. The blood sugar level was measured before glucose solution administration and at 5, 10, 15, 20, 30, 40, 60, 90, and 120 minutes after the administration to evaluate oral glucose tolerance. In addition, the UGE was evaluated by measuring the amount of glucose excreted in the urine 6, 24, 48, and 72 hours after the administration of the glucose solution.

A short description of data set [2]: Half-life of M2 (rapid dissipation). To be noted: in vivo.
The target in data set [3] is T1, SGLT2 (Homo sapiens, UniProt P31639).
T1 construct: expressed in transfected cells
T1 sequence (P31639 1-672): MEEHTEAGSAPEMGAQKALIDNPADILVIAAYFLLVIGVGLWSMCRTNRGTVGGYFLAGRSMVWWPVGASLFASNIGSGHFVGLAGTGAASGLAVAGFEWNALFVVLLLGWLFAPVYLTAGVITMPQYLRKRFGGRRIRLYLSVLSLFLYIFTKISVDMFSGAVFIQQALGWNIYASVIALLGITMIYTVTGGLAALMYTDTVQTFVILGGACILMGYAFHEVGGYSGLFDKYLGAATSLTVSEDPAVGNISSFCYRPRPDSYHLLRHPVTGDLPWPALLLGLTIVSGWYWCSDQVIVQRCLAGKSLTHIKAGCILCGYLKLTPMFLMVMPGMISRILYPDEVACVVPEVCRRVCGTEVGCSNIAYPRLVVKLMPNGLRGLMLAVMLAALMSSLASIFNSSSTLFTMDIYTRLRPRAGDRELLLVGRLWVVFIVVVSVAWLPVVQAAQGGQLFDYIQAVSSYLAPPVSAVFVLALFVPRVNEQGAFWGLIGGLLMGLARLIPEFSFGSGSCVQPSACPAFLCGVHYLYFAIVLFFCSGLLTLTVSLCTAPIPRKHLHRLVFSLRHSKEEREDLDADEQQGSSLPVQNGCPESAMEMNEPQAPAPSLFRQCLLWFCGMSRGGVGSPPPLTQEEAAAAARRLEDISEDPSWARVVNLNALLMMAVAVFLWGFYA
Description: Change in SGLT2 inhibition according to drug pretreatment time (CHO-SGLT2). It counts as cell-based. The note with it: for IC50: CHO-SGLT2; for Change in SGLT2 inhibition as exposure time increased: pretreatment 0, 1, 2 h, one-way ANOVA. From the text:
All data values are expressed as the mean±SD of […].

The target in data set [4] is T1, SGLT2. Description: SGLT2 inhibition with varied substrate AMG concentration (Dixon / L-B plot). The format is cell-based. The note with it: for Inhibition mechanism, SGLT2: CHO-SGLT2, varied AMG concentration; for Ki: from slope of L-B plot, CHO-SGLT2.
Description: From these, the inhibition mechanism was confirmed, and the inhibition constant was calculated.
Data set [5] deals with normal rats. As to the kind of experiment: Urinary glucose excretion (UGE) after intravenous administration. The format is in vivo, rat. The note with it: 1 mg/kg intravenous, 6-72 hours. The protocol: as §1, §2
Data set [6] has as its system STZ-induced type 1 diabetic rats. As to the kind of experiment: Non-fasting blood glucose in type 1 diabetic rat model. The format is in vivo. The note with it: 1 mg/kg single intravenous dose. The protocol: (§3) STZ was administered to Sprague Dawley (SD) male 5-week-old rats on day 0 (G2 to G7, excluding G1), and non-fasting blood glucose levels were measured on day 3 to determine whether type 1 diabetes was induced. On day 7, the experimental substances were administered to each group, and blood and urine samples were collected at 6 h, 24 h, 48 h, and 72 h to measure non-fasting blood glucose levels. On day 14 of the experiment, the experimental animals were fasted for 16 h, and on day 15, 2 g/kg of glucose solution was orally administered after the experimental substances were administered. Thereafter, blood glucose levels were measured at 15, 30, 60, 90, and 120 minutes after glucose administration. After blood collection, the serum was separated, and the IL-6 inflammatory response was evaluated using an interleukin-6 (IL-6) enzyme-linked immunosorbent assay (ELISA) kit.

The test system is the same in data set [7]. Description: Oral glucose tolerance test in type 1 diabetic rat model. The format is in vivo. The note with it: for Blood glucose level in OGTT: glucose 2 g/kg oral. The protocol:
as §3

In another data set the test system is interleukin-6 (IL-6). Description: Serum IL-6 ELISA in type 1 diabetic rat model. It counts as in vivo. The note with it: STZ rats, 6, 24, 48, 72 hours after administration. The protocol:
as §3
Background: ELISA stands for enzyme-linked immunosorbent assay.

For data set [8], the target named is T1, SGLT2. As to the kind of experiment: Applicant's preliminary study of SGLT2 inhibition, intracellular retention and activity recovery. The format is cell-based.
The mark [9] stands for this setting: IC50 according to pretreatment time (nM), SGLT2, 1 h, 1 h pretreatment in sodium-free buffer.
The mark [10] stands for this setting: IC50 according to pretreatment time (nM), SGLT2, 2 h, 2 h pretreatment in sodium-free buffer.
[11] abbreviates: no pretreatment, read-out: IC50 according to pretreatment time (nM), SGLT2, 0 h.

In the case of `OC[C@H]1O[C@@H](c2cc(Cc3ccc(C4(O)CC4)cc3)c(Cl)c3c2CCO3)[C@H](O)[C@@H](O)[C@@H]1O` [M2, (2S,3R,4R,5S,6R)-2-(7-chloro-6-(4-(1-hydroxycyclopropyl)benzyl)-2,3-dihydrobenzofuran-4-yl)-6-(hydroxymethyl)tetrahydro-2H-pyran-3,4,5-triol], the “Glucose tolerance inhibition rate improved compared to the vehicle (blood glucose AUC)” value in the data set with normal rats [1] is reported as 23%. Also, the “Glucose tolerance in OGTT” value in the data set on normal rats [1] (1 mg/kg) is listed as “improved glucose tolerance”. The compound also showed a half-life in [2] of 48 min. Moreover, the IC50 was found to be 3.63 ± 0.83 nM on SGLT2 [3] (setting [9]), 3.24 ± 0.81 nM on SGLT2 [3] (setting [10]) and 2.75 ± 0.36 nM at SGLT2 [3] (setting [11]). In addition, the “Change in SGLT2 inhibition as exposure time increased” value at SGLT2 [3] was “did not increase or significantly change”. Moreover, on SGLT2 [4], the “Inhibition mechanism, SGLT2” value was “Competitive inhibition”. The same compound displayed a Ki on SGLT2 [4] of 6.18 nM. In addition, in the data set on normal rats [5], the “Urinary glucose excretion (UGE)” value is “UGE was observed from six hours after intravenous administration; also recorded: less glucose was excreted than enavogliflozin and M1 for up to 24 hours”.
As to `OC[C@H]1O[C@@H](c2cc(Cc3ccc(C4CC4)cc3)c(Cl)c3c2CC(O)O3)[C@H](O)[C@@H](O)[C@@H]1O` (stereo partly drawn) [M1, (2S,3R,4R,5S,6R)-2-(7-chloro-6-(4-cyclopropylbenzyl)-2-hydroxy-2,3-dihydrobenzofuran-4-yl)-6-(hydroxymethyl)tetrahydro-2H-pyran-3,4,5-triol], the “Glucose tolerance inhibition rate improved compared to the vehicle (blood glucose AUC)” value in the data set on normal rats [1] stood at 49%. In addition, the “Glucose tolerance in OGTT” value in the data set on normal rats [1] (1 mg/kg) was “improved glucose tolerance”; in the data set with normal rats [1] (listed as Metabolite M1, 1 mg/kg), “superior glucose tolerance to enavogliflozin”. For the same compound, in data set [6], the “Non-fasting blood sugar level” value is listed as “lowest blood sugar level at 48 hours after administration”. Besides, in [7] (STZ rats, 1 mg/kg), the “AUC of blood glucose in OGTT” value is given as “best oral glucose tolerance improvement effect”. The “Blood glucose level in OGTT” value in [7] (STZ rats, 1 mg/kg) was “fastest and strongest blood glucose lowering effect”. Besides, in [7] (STZ rats, 0.01, 0.1, 1 mg/kg), the “Dose dependence of glucose tolerance in OGTT” value is listed as “dose-dependent improvement in glucose tolerance”. For the same compound, the results for the IC50 on SGLT2 [3] (setting [9]), on SGLT2 [3] (setting [10]) and at SGLT2 [3] (setting [11]) were 5.24 ± 1.1 nM, 9.95 ± 3.14 nM and 8.44 ± 0.77 nM, respectively. The “Change in SGLT2 inhibition as exposure time increased” value at SGLT2 [3] is “did not increase or significantly change”. For the same compound, the “Inhibition mechanism, SGLT2” value on SGLT2 [4] was “Competitive inhibition”. At SGLT2 [4], this compound showed a Ki of 7.49 nM. In addition, in the data set with normal rats [5], the “Urinary glucose excretion (UGE)” value is “UGE was observed from six hours after intravenous administration; also recorded: similar”. Moreover, the “Change in IL-6 level” value in the data set with interleukin-6 (IL-6) is on record as “significant decrease in all dose groups”.
Consider `OC[C@H]1O[C@@H](c2cc(Cc3ccc(C4CC4)cc3)c(Cl)c3c2CCO3)[C@H](O)[C@@H](O)[C@@H]1O` [Enavogliflozin, (2S,3R,4R,5S,6R)-2-(7-chloro-6 (4-cyclopropylbenzyl)-2,3-dihydrobenzofuran-4-yl)-6-(hydroxymethyl)tetrahydro-2H-pyran-3,4,5-triol], for which the “Glucose tolerance inhibition rate improved compared to the vehicle (blood glucose AUC)” value in the data set with normal rats [1] amounted to 27%. Further, the “Glucose tolerance in OGTT” value with normal rats [1] is given as “improved glucose tolerance”. The “Blood glucose level in OGTT” value in data set [7] (STZ rats, 1 mg/kg) is “lowering of the blood glucose level was observed”. Also, the IC50 at SGLT2 [3] (setting [9]) was 0.285 ± 0.188 nM; on SGLT2 [3] (setting [10]) it was 0.519 ± 0.222 nM; on SGLT2 [3] (setting [11]) it was 0.388 ± 0.119 nM. The “Change in SGLT2 inhibition as exposure time increased” value on SGLT2 [3] is given as “did not increase or significantly change”. On SGLT2 [4], the “Inhibition mechanism, SGLT2” value is listed as “Competitive inhibition”. On SGLT2 [4], this compound yielded a Ki of 0.411 nM. Moreover, the “Change in IL-6 level” value in the data set on interleukin-6 (IL-6) was “slight decrease”. The “Amount of drug remaining in the cells” value on SGLT2 [8] (after culturing for 24 hours, compared to dapagliflozin and ipragliflozin) is on record as “significantly higher”. The “Inhibition mechanism of SGLT2 (Dixon plot and Replot)” value at SGLT2 [8] (preliminary study) is on record as “reversible competitive inhibition mechanism”. Also, on SGLT2 [8] (pretreatment for up to two hours, preliminary study), the “Change in inhibition after pretreatment” value is recorded as “no change in inhibition”.

As usually defined, the half-life is the time needed for the level to fall by half in the phase considered. In general, IC50 refers to the concentration needed to halve the response being measured. For orientation: Ki means a dissociation constant, usually derived from enzyme kinetics or from competition with a known ligand. High values mean weaker binding, low ones tighter binding.
